Reference: patent US12358948B2, “Neurotensinergic agonists and methods of using same preventing or treating pain” (priority 2019, dated 2025)
*1 amine or outer side, *2 acyl side, *3 side chain or, on linkers, in order; H or OH if unused. Where a SMILES comes first, the peptide text is derived from it. Bridges are numbered along the chain shown (N, C = ends). [ ]: non-standard residue; d: D form. ξ: configuration not given here. ξαMeNle(6-ylidene) = CC(CCCC=[*:3])(N[*:1])C(=O)[*:2]; Dip = N[C@H](C(=O)O)C(c1ccccc1)c1ccccc1; Phe(4-F) = N[C@@H](Cc1ccc(F)cc1)C(=O)O; 2Nal = N[C@@H](Cc1ccc2ccccc2c1)C(=O)O; Tic = O=C(O)[C@@H]1Cc2ccccc2CN1; 2Thi = N[C@@H](Cc1cccs1)C(=O)O; Cha = N[C@@H](CC1CCCCC1)C(=O)O; Cit = NC(=O)NCCC[C@H](N)C(=O)O; Ile(3ξ) = CCC(C)[C@H](N)C(=O)O; AllylGly = C=CC[C@H](N)C(=O)O; Cba = N[C@@H](CC1CCC1)C(=O)O; Chg = N[C@H](C(=O)O)C1CCCCC1; Orn = NCCC[C@H](N)C(=O)O; Dab = NCC[C@H](N)C(=O)O; Dap = NC[C@H](N)C(=O)O

Key:
hNTS2 receptor = biological target: T1, hNTS2 receptor (Homo sapiens, UniProt O95665); assay: Competitive radioligand binding assay on the hNTS2 receptor; conditions: for IC50: displacement of 125I-[Tyr3]-NT, membranes of 1321N1 cells expressing hNTS2, read-out: IC50 NTS2 (converted); for Selectivity: ratio IC50 for NTS1 : IC50 for NTS2
T1 construct: membranes prepared from them
T1 sequence (O95665 whole entry): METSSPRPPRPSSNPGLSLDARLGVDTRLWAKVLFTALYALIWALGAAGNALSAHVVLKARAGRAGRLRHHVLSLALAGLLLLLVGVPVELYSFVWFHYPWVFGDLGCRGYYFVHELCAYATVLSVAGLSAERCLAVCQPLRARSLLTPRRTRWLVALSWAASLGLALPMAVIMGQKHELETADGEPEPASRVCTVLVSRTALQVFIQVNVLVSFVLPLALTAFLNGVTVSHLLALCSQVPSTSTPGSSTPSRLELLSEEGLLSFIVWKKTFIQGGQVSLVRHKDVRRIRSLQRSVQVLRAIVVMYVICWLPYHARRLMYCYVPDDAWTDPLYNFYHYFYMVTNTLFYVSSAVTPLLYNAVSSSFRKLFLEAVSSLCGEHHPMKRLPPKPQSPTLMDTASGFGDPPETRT
In short: (§1)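 IC50 values came from one-site competition curves against ¹²⁵I-[Tyr³]-NT after 60 min at 25 °C (pH 7.5 Tris, 0.2% BSA), with analogues at 10⁻¹¹–10⁻⁴ M and nonspecific binding set by 10⁻⁵ M NT(8-13). hNTS1 used 15 µg CHO-K1 membranes with […] tracer; hNTS2 used 50 µg 1321N1 membranes with […] tracer.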

hNTS1 receptor = biological target: T2, hNTS1 receptor (Homo sapiens, UniProt P30989); assay: Competitive radioligand binding assay on the hNTS1 receptor; conditions: displacement of 125I-[Tyr3]-NT, membranes of CHO-K1 cells expressing hNTS1; read-out: IC50 NTS1
T2 construct: membranes prepared from them
T2 sequence (P30989 whole entry): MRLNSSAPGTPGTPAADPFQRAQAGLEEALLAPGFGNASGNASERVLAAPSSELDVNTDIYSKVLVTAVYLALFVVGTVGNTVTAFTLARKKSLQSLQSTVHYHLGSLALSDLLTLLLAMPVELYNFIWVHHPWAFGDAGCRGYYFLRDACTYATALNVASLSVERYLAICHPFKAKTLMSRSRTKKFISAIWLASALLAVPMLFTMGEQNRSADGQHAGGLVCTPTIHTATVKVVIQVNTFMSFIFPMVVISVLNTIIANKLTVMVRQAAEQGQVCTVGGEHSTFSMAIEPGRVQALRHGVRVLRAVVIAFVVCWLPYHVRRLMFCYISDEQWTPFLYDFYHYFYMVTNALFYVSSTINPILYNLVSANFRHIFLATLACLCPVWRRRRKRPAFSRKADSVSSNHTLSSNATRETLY
In short: as §1

Compound	IC50 (hNTS2 receptor) [nM]	Selectivity (hNTS2 receptor)	IC50 (hNTS1 receptor) [nM]
CC(C)C[C@H](NC(=O)[C@H](CC1CCC1)NC(=O)[C@@H]1CC=CC[C@H](N)C(=O)N[C@@H](CCCCN)C(=O)N[C@@H](CCCCN)C(=O)N1)C(=O)O [compound 143, c[G(All)KKG(All)]A (cyclobutyl)L] (H-[AllylGly]KK[AllylGly][Cba]L-OH; staple 1-4)	276	362	> 100000
CC(C)C[C@H](NC(=O)[C@H](Cc1ccc(O)cc1)NC(=O)[C@@H]1CC=CC[C@H](NC(=O)[C@@H](N)CCCCN)C(=O)N[C@@H](CCCCN)C(=O)N[C@@H](CCCCN)C(=O)N1)C(=O)O [compound 156, Kc[G(All)KKG(All)]YL] (H-K[AllylGly]KK[AllylGly]YL-OH; staple 2-5)	6.6	15244	> 100000
CC(C)C[C@H](NC(=O)[C@H](Cc1ccc(O)cc1)NC(=O)[C@@H]1CCNC(=O)CC[C@H](N)C(=O)N[C@@H](CCCCN)C(=O)N[C@@H](CCCCN)C(=O)N1)C(=O)O [compound 104, c[EKKDab]YL] (H-EKK[Dab]YL-OH; lactam 1-4)	16500	>6.1	> 100000
NCCCC[C@@H]1NC(=O)[C@H](CCCCN)NC(=O)[C@@H](N)CC=CC[C@@H](C(=O)N[C@@H](Cc2ccc(O)cc2)C(=O)N[C@H](C(=O)O)C2CCCCC2)NC1=O [compound 30, c[G(All)KKG(All)]YChG] (H-[AllylGly]KK[AllylGly]Y[Chg]-OH; staple 1-4)	955	>104	> 100000
CC(C)C[C@H](NC(=O)[C@H](Cc1ccc(O)cc1)NC(=O)[C@@H]1CC(=O)NC[C@H](N)C(=O)N[C@@H](CCCCN)C(=O)N[C@@H](CCCCN)C(=O)N1)C(=O)O [compound 94, c[DapKKD]YL] (H-[Dap]KKDYL-OH; lactam 1-4)	22800	>4.4	> 100000
CCC(C)[C@H](NC(=O)[C@H](Cc1ccc(O)cc1)NC(=O)[C@@H]1CC=CC[C@H](N)C(=O)N[C@@H](CCCCN)C(=O)N[C@@H](CCCCN)C(=O)N1)C(=O)O (some centres unmarked) [compound 14, c[G(All)KKG(All)]YI] (H-[AllylGly]KK[AllylGly]Y[Ile(3ξ)]-OH; staple 1-4)	10200	10	100000
NCCCC[C@@H]1NC(=O)[C@H](CCCCN)NC(=O)[C@@H](N)CC=CC[C@@H](C(=O)N[C@@H](Cc2ccc(O)cc2)C(=O)N[C@@H](CC2CCCCC2)C(=O)O)NC1=O [compound 31, c[G(All)KKG(All)]YA(Ch)] (H-[AllylGly]KK[AllylGly]Y[Cha]-OH; staple 1-4)	8.67	>11534	> 100000
CC(C)C[C@H](NC(=O)[C@@H](NC(=O)[C@@H]1CC=CC[C@H](N)C(=O)N[C@@H](CCCCN)C(=O)N[C@@H](CCCCN)C(=O)N1)C(c1ccccc1)c1ccccc1)C(=O)O [compound 140, c[G(All)KKG(All)]A (diphenyl)L] (H-[AllylGly]KK[AllylGly][Dip]L-OH; staple 1-4)	631	158	> 100000
CC(C)C[C@H](NC(=O)[C@H](Cc1cccs1)NC(=O)[C@@H]1CC=CC[C@H](N)C(=O)N[C@@H](CCCCN)C(=O)N[C@@H](CCCCN)C(=O)N1)C(=O)O [compound 159, c[G(All)KKG(All)]A(2-thienyl)L] (H-[AllylGly]KK[AllylGly][2Thi]L-OH; staple 1-4)	90	1112	> 100000
CC(C)C[C@@H](NC(=O)[C@H](Cc1ccc(O)cc1)NC(=O)[C@@H]1CC=CC[C@H](N)C(=O)N[C@@H](CCCCN)C(=O)N[C@@H](CCCCN)C(=O)N1)C(=O)O [compound 38, c[G(All)KKG(All)]YL*] (H-[AllylGly]KK[AllylGly]Y[dL]-OH; staple 1-4)	240000	> 2.4	> 100000
CC(C)C[C@H](NC(=O)[C@H](Cc1c[nH]c2ccccc12)NC(=O)[C@@H]1CC=CC[C@H](N)C(=O)N[C@@H](CCCCN)C(=O)N[C@@H](CCCCN)C(=O)N1)C(=O)O [compound 16, c[G(All)KKG(All)]WL] (H-[AllylGly]KK[AllylGly]WL-OH; staple 1-4)	53.6	1865	> 100000
CC(C)C[C@H](NC(=O)[C@H](Cc1ccc(O)cc1)NC(=O)[C@@H]1CCCC[C@H](N)C(=O)N[C@@H](CCCCN)C(=O)N[C@@H](CCCCN)C(=O)N1)C(=O)O [compound 47, Dihydro-c[G(All)KKG(All)]YL]	94	>1064	> 100000
CC(C)C[C@H](NC(=O)[C@H](Cc1ccc(F)cc1)NC(=O)[C@@H]1CC=CC[C@H](N)C(=O)N[C@@H](CCCCN)C(=O)N[C@@H](CCCCN)C(=O)N1)C(=O)O [compound 77, c[G(All)KKG(All)]F(4-fluoro)L] (H-[AllylGly]KK[AllylGly][Phe(4-F)]L-OH; staple 1-4)	95.6	>1046	> 100000
CC(C)C[C@H](NC(=O)[C@H](Cc1ccc(O)cc1)NC(=O)[C@@H]1CC=CC[C@H](N)C(=O)N[C@@H](CCCCN)C(=O)N[C@@H](CCCN)C(=O)N1)C(=O)O [compound 51, c[G(All)KOrnG(All)]YL] (H-[AllylGly]K[Orn][AllylGly]YL-OH; staple 1-4)	70.3	>1422	> 100000
CC(C)C[C@H](NC(=O)[C@H](Cc1ccc(O)cc1)NC(=O)[C@@H]1CC=CC[C@H](N)C(=O)N[C@@H](CCCCN)C(=O)N[C@@H](CN)C(=O)N1)C(=O)O [compound 53, c[G(All)KDapG(All)]YL] (H-[AllylGly]K[Dap][AllylGly]YL-OH; staple 1-4)	204	>490.9	> 100000
CC(C)C[C@H](NC(=O)[C@H](Cc1ccc2ccccc2c1)NC(=O)[C@@H]1CC=CC[C@H](N)C(=O)N[C@@H](CCCCN)C(=O)N[C@@H](CCCCN)C(=O)N1)C(=O)O [compound 112, c[G(All)KKG(All)]A(naphtyl)L] (H-[AllylGly]KK[AllylGly][2Nal]L-OH; staple 1-4)	83.6	>1196	> 100000
CC1(C(=O)N[C@@H](Cc2ccc(O)cc2)C(=O)N[C@@H](CC2CCCC2)C(=O)O)CCCC=CCCC(=O)N[C@@H](CCCCN)C(=O)N[C@@H](CCCCN)C(=O)N1 (stereo partly drawn) [compound 135, c[K(Pentenoyl)KG(alpha-Me-(4-pentenyl))]YA(cyclopentyl)]	45.9	2179	> 100000
CC(C)C[C@H](NC(=O)[C@H](Cc1ccc(O)cc1)NC(=O)[C@@H]1CC=CC[C@H](N)C(=O)N[C@@H](CCCNC(N)=O)C(=O)N[C@@H](CCCCN)C(=O)N1)C(=O)O [compound 147, c[G(All)citrullineKG(All)]YL] (H-[AllylGly][Cit]K[AllylGly]YL-OH; staple 1-4)	600	167	> 100000
COc1ccc(C[C@H](NC(=O)[C@@H]2CC=CC[C@H](N)C(=O)N[C@@H](CCCCN)C(=O)N[C@@H](CCCCN)C(=O)N2)C(=O)N[C@@H](CC(C)C)C(=O)O)cc1 [compound 75, c[G(All)KKG(All)]Y(OMe)L] (H-[AllylGly]KK[AllylGly]Y(Me)L-OH; staple 1-4)	86.3	>1159	> 100000
CC(C)C[C@H](NC(=O)[C@H](Cc1ccc(O)cc1)NC(=O)[C@@H]1CC(=O)NCCC[C@H](N)C(=O)N[C@@H](CCCCN)C(=O)N[C@@H](CCCCN)C(=O)N1)C(=O)O [compound 96, c[OrnKKD]YL] (H-[Orn]KKDYL-OH; lactam 1-4)	1930	>51.8	> 100000
CC(C)C[C@H](NC(=O)[C@@H]1Cc2ccccc2CN1C(=O)[C@@H]1CC=CC[C@H](N)C(=O)N[C@@H](CCCCN)C(=O)N[C@@H](CCCCN)C(=O)N1)C(=O)O [compound 167, c[G(All)KKG(All)]G(Tic)*L*] (H-[AllylGly]KK[AllylGly][Tic]L-OH; staple 1-4)	96.2	1040	> 100000
CC(C)C[C@H](NC(=O)[C@@H](Cc1ccc(O)cc1)NC(=O)[C@@H]1CC=CC[C@H](N)C(=O)N[C@@H](CCCCN)C(=O)N[C@@H](CCCCN)C(=O)N1)C(=O)O [compound 21, c[G(All)KKG(All)]Y*L] (H-[AllylGly]KK[AllylGly][dY]L-OH; staple 1-4)	4700	–	> 100000
COc1ccc(C[C@H](NC(=O)[C@H](Cc2ccc(O)cc2)NC(=O)[C@@H]2CC=CC[C@H](N)C(=O)N[C@@H](CCCCN)C(=O)N[C@@H](CCCCN)C(=O)N2)C(=O)O)cc1 [compound 62, c[G(All)KKG(All)]YY(OMe)] (H-[AllylGly]KK[AllylGly]YY(Me)-OH; staple 1-4)	166	>602	> 100000
CC(C)C[C@H](NC(=O)[C@H](Cc1ccc(O)cc1)NC(=O)C1(C)CCCC=CCCCC(C)(N)C(=O)N[C@@H](CCCCN)C(=O)N[C@@H](CCCCN)C(=O)N1)C(=O)O (stereo partly drawn) [compound 93, c[G(alpha-Me-(4-Pentenyl))KKG*(alpha-Me(4-Pentenyl))]YL] (H-[ξαMeNle(6-ylidene)]KK[ξαMeNle(6-ylidene)]YL-OH; staple 1-4)	34.4	>2907	> 100000
CC(C)C[C@H](NC(=O)[C@H](Cc1ccc(O)cc1)NC(=O)C1(C)CC=CCCC[C@H](N)C(=O)N[C@@H](CCCCN)C(=O)N[C@@H](CCCCN)C(=O)N1)C(=O)O (single isomer, unassigned) [compound 92, c[G(All)KKG*(alpha-Me-(4-Pentenyl))]YL]	511	>196	> 100000
